Columns and labels:
Cr transporter (CrT) = target: T1, Cr transporter (CrT) (Rattus norvegicus, UniProt P28570); assay: 14C-Cr transport in rat neonatal cardiomyocytes (RNCM) after DOX incubation; format: cell-based; conditions: 100 nmol/L DOX
T1 construct: measuring ^14C—Cr uptake in primary RNCMs; endogenous in cells; host or cells: primary rat neonatal cardiomyocytes (RNCM)
T1 sequence (P28570 1-635): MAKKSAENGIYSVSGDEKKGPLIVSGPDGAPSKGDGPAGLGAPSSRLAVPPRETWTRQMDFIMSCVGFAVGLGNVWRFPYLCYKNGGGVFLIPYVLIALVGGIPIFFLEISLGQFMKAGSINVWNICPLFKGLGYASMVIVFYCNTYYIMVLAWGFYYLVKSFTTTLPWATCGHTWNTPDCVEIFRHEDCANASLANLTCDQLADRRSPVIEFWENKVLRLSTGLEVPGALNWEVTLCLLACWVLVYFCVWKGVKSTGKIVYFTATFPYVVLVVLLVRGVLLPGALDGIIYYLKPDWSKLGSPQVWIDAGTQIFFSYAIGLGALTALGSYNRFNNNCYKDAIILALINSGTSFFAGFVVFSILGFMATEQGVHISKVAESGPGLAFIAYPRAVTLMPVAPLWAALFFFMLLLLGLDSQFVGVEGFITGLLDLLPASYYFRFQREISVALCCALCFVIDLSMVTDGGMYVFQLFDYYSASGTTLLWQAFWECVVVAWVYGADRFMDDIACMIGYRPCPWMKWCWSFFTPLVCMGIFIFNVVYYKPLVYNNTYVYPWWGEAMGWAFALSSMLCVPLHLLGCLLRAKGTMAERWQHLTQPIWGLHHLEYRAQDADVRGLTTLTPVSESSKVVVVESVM
Description: Cells were plated on tissue culture dishes pre-coated with gelatin/fibronectin and allowed to grow in M199 media (INVITROGEN, Carlsbad, Calif.) containing 2% serum before experimentation. All animals were treated according to protocols approved by Duke University's Institutional Animal Care and Use Committee. HL-1 cells (passages 50 to 75), were plated onto fibronectin/gelatin-coated plates and cultured in CLAYCOMB media (SIGMA, St. Louis, Mo.) supplemented with 10% fetal bovine serum, 100 units/ml penicillin, 100 μg/ml streptomycin, 0.1 mM norepinephrine, and 2 mmol/L L-glutamine, as described previously (White S. M., et al., Am J Physiol Heart Circ Physiol 286: H823-829, 2004). The cultures were maintained in a humidified atmosphere of 5% CO2 at 37° C.
Cr transport assays were performed after growth in control media for 0, 4, 12, 24 or 48 hrs.
Cells used for Cr transport assays were cultured in 24-well plates coated with fibronectin and gelatin. […]
For assays that measured Cr transport kinetics, the final Cr content in the uptake buffer ranged from 5 to 305 μmol/L. Uptake was terminated by aspiration of the radiolabeled solution, followed by 3 washes with ice-cold choline buffer. […] Cr transport was normalized to the protein concentration measured using the bicinchoninic acid (BCA) protein assay (PIERCE BIOTECHNOLOGY, Rockford, Ill.). […]

HL-1 cells [1] = assay: Caspase 3/7 apoptosis assay in HL-1 cells; format: cell-based, murine; conditions: HL-1, 100 nmol/L DOX, up to 48 hrs
Description: Apoptosis was measured using PROMEGA's CASPASE-GLO 3/7 ASSAY SYSTEM (PROMEGA). Briefly, attached cells in a single 24-well plate were washed 3 times with ice-cold PBS and resuspended in 500 μl of 1% TRITON-X100; 10% glycerol; 2 mmol/L EDTA; 137 mmol/L NaCl; and 20 mmol/L Tris, pH 8.0. A mixture of 25 μL of lysate and 25 μL of caspase 3/7-assay reagent was prepared, and sequential luminescent readings were taken every 15 min for 4 hrs. Peak signal readings were normalized to protein content and plotted.

HL-1 cells [2] = assay: LDH release cytotoxicity assay in HL-1 cells; format: cell-based, murine
Description: Toxicity was assessed by quantifying the amount of lactate dehydrogenase (LDH) present in the culture media using PROMEGA's CYTOTOX96 NON-RADIOACTIVE ASSAY (PROMEGA, Madison, Wis.). Maximum cytotoxicity was determined by measuring the amount of LDH released in cells incubated with the kit's lysis buffer. The percentage of LDH released after DOX treatment was compared with that of controls.

[3] = cited from earlier work
HL-1 cells [4] = assay: Quantification of Cr and high-energy phosphates in HL-1 extracts by LC-MS/MS; conditions: HL-1, 100 nmol/L DOX, 24 hrs

## COc1cccc2c1C(=O)c1c(O)c3c(c(O)c1C2=O)C[C@@](O)(C(=O)CO)C[C@@H]3O[C@H]1C[C@H](N)[C@H](O)[C@H](C)O1 [DOX, Doxorubicin]
Cr transporter (CrT); 32 hrs before the 36 hrs point (FIG. 1A)
  Decrease in Cr uptake: 37%
Cr transporter (CrT); within 2-4 hrs of exposure, vs control media
  Cr transport (14C-Cr uptake): decreased significantly
HL-1 cells [1]
  Apoptosis (caspase 3/7 activation): No increase
HL-1 cells [2]; HL-1, 50 nmol/L DOX, through 48 hrs
  LDH release: not significantly elevated
HL-1 cells [2]; HL-1, 100 nmol/L DOX, 24 hrs
  Increase in LDH release compared with controls: approximately 10%
[3]
  Average steady-state concentration typically measured in patient plasma: 100 nmol/L
HL-1 cells [4]
  ADP: 0.50 ± 0.07 μmols/mg prot
  AMP: 0.26 ± 0.08 μmols/mg prot
  ATP: 0.60 ± 0.15 μmols/mg prot
  Cr: 23.01 ± 7.92 μmols/mg prot
  PCr: 5.94 ± 0.12 μmols/mg prot

— patent US20120315654A1, “COMPOSITIONS AND METHODS FOR DETECTING CARDIOTOXICITY” (DUKE UNIVERSITY, priority 2011, published 2012)
